Test results from paper PMC8531552, “Full-Length Galectin-3 Is Required for High Affinity Microbial Interactions and Antimicrobial Activity” (Frontiers in Microbiology, 2021).

How the values were obtained:
[1] = tested on: K. pneumoniae O1; test: Flow cytometry analysis of galectin binding to intact bacteria; design: species or system Klebsiella pneumoniae O1
Procedure: (§1) To examine potential binding by each galectin, bacteria were resuspended and washed twice in PBS at 4°C and then incubated with 0.1μM Alexa Fluor™ 488 labeled Gal-3 or Gal-3C at 4°C for 20min. In some experiments, Gal-3 or Gal-3C were co-incubated with 20mM thiodigalactoside (TDG) for 10min before incubation with the bacteria as a control. After incubation, cells were washed twice and resuspended them in 400μl PBS for flow cytometry analysis using FACSCanto II flow cytometer (BD Biosciences). The data were processed with FlowJo version 10.

[2] = tested on: P. alcalifaciens O5; test: as above; design: species or system Providentia alcalifaciens O5
Procedure: as §1

[3] = tested on: P. alcalifaciens O21; test: as above; design: species or system Providentia alcalifaciens O21; conditions: 0.1μM Alexa Fluor 488 labeled galectin, 4°C, 20min
Procedure: as §1

[4] = tested on: K. pneumoniae O1; test: Bacteria viability by CFU enumeration; type: cell-based, Klebsiella pneumoniae O1; conditions: 37°C, 2h
Procedure: (§2) When assaying potential antimicrobial effects of Gal-3 and Gal-3C, each strain was assessed in the mid-logarithmic growth phase (OD600 of ~0.1) and grown in LB media as outlined previously ([Arthur et al., 2015b]). Bacterial cells were incubated with the concentrations of each galectin indicated in the figure legends (0.04–10μM) at 37°C for 2h with shaking at 250rpm. Bacteria were then pipetted and plated on LB agar plate to determine the number of viable bacteria by CFU enumeration.

[5] = tested on: K. pneumoniae O4; test: Bacteria viability by CFU enumeration; type: cell-based, Klebsiella pneumoniae O4; conditions: 0.04–10μM, 37°C, 2h
Procedure: as §2

[6] = tested on: P. alcalifaciens O5; test: Bacteria viability by CFU enumeration; type: cell-based, Providentia alcalifaciens O5; conditions: 37°C, 2h
Procedure: as §2

[7] = tested on: P. alcalifaciens O21; test: Bacteria viability by CFU enumeration; type: cell-based, Providentia alcalifaciens O21; conditions: 0.04–10μM, 37°C, 2h
Procedure: as §2

[8] = biological target: T1, human Gal-3C (C-terminal domain of Gal-3) (Homo sapiens, UniProt P17931); test: CFG glycan microarray binding of Alexa Fluor 488 labeled Gal-3C
T1 construct: made in house; host or cells: E. coli BL21 (DE3)
Procedure: (§3) Galectins were labeled with Alexa Fluor™ 488 NHS Ester (succinimidyl ester) by incubating 2mg/ml galectin with 1mg Alexa Fluor™ 488 for 1h at room temperature and avoid from light as outlined previously ([Stowell et al., 2004]). […] While 2-ME is not required for Gal-3 activity, this approach was used to provide a consistent protocol for all galectin purification. […] Finally, labeled galectin was applied to CFG glycan microarray (CFG) and MGM prepared as described previously ([Blixt et al., 2004]; [Stowell et al., 2008a], [2014]; [Song et al., 2009]; [Wu et al., 2021a]). […] The slide was dried by microcentrifugation, and an image of bound fluorescence was obtained using a microarray scanner (GenePix 4000 B, Molecular devices). […] For non-saturated positive glycan interactions, the relative fluorescence units were plotted as a percent of the maximal binding at the highest concentration examined.
(§4) In order to compare the relative binding affinities of Gal-3 and Gal-3C toward blood group antigens and other glycan structures present on the array, we calculated the relative KD generated from binding isotherm data for each galectin toward various blood group antigens, polylactosamine (polyLacNAc), and other common structural modifications previously shown to influence galectin recognition (e.g., α2-6 sialylation).

[9] = biological target: T2, human Gal-3 (Homo sapiens, UniProt P17931); test: CFG glycan microarray binding of Alexa Fluor 488 labeled Gal-3
T2 construct: made in house; host or cells: E. coli BL21 (DE3)
Procedure: as §3, §4

[10] = 20mM TDG co-incubated with galectin
[11] = 0.1μM Alexa Fluor 488 labeled galectin, 4°C, 20min

T2 sequence (P17931 whole entry): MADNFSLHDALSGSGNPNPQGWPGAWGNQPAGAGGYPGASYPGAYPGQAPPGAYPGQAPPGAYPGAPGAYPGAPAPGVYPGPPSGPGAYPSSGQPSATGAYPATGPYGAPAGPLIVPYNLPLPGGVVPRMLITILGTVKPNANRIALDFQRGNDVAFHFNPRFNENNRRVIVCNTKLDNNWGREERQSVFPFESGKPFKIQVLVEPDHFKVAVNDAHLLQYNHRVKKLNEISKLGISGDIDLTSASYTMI
T1 sequence (P17931 118-248 limits assumed): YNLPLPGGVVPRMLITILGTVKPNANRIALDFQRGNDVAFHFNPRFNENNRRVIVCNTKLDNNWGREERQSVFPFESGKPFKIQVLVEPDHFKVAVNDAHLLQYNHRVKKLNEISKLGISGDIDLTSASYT

## OC[C@H]1O[C@@H](S[C@@H]2O[C@H](CO)[C@H](O)[C@H](O)[C@H]2O)[C@H](O)[C@@H](O)[C@H]1O [TDG, thiodigalactoside, reference compound]
[1]; [10]
  effect on Gal-3 and Gal-3C binding to K. pneumoniae O1: prevented binding
[2]; [10]
  effect on Gal-3 and Gal-3C engagement of P. alcalifaciens O5: inhibited recognition

## Gal-3: recombinant human galectin-3, full-length chimeric galectin expressed in E. coli
[3]
  binding to P. alcalifaciens O21: failed to result in any detectable binding
[4]; 0.04–10μM
  impact on viability of K. pneumoniae O1: loss of microbial viability was noted at higher concentrations
[4]; CFU enumeration, read-out: EC50 toward K. pneumoniae O1 viability
  EC50: 750 nM
[1]; [11]
  binding to K. pneumoniae O1: bound K. pneumoniae O1
[5]
  impact on viability of K. pneumoniae O4: failed to impact the viability
[6]; 0.04–10μM
  impact on viability of P. alcalifaciens O5: reduced viability
[6]; CFU enumeration, read-out: effective concentration 50 (EC50), viability of P. alcalifaciens O5
  EC50: ~170 nM
[2]; [11]
  binding to P. alcalifaciens O5: Clear interactions
[7]
  impact on viability of P. alcalifaciens O21: failed to result in any detectable impact on microbial viability

## blood group B
[8]; CFG array
  Gal-3C concentration required for similar absolute binding as Gal-3 at […]: 3.3 µM
[8]; binding isotherms, Fig 2
  Gal-3C binding on CFG array: high affinity interactions
[9]; CFG array, virtually no binding at or below 0.12μM
  Gal-3 concentration at which recognition was observed: 0.36 µM
[9]; binding isotherms, Fig 2 and 3
  Gal-3 binding on CFG array: high affinity interactions
